According to ChEMBL document CHEMBL4043090 (Bioorg Med Chem, 2017):

Assays:
[1] = Therapeutic index, ratio of TC50 for human MAGI-CCR5 cells to IC50 for HIV-1 Bal infected in MAGI-CCR5 cells
[2] = Cytotoxicity against human MAGI-CCR5 cells assessed as reduction in cell viability after 48 hrs by MTS assay; assay type: cell-based; conditions: read-out: TC50
[3] = Cytotoxicity against human PBMC assessed as reduction in cell viability by MTS assay; assay type: cell-based; conditions: read-out: TC50 (the source's name)
PBMC = experiment: Antiviral activity against HIV-1 Bal infected in human PBMC by MTS assay; assay type: functional, cell-based
[4] = Therapeutic index, ratio of TC50 for human PBMC to IC50 for HIV-1 Bal infected in human PBMC
[5] = tested on: Human immunodeficiency virus 1; experiment: Antiviral activity against HIV-1 Bal infected in human MAGI-CCR5 cells assessed as reduction in viral infection after 48 hrs by fluorescence based beta-galactosidase reporter gene assay; assay type: functional, cell-based; conditions: for IC50 / IC90: Human immunodeficiency virus 1, Bal, MAGI-CCR5, 48 h

Compound	TI [1]	CC50 at 48 h [2] [µM]	CC50 [3] [µM]	IC50 (PBMC) [µM]	IC90 (PBMC) [µM]	TI [4]	Activity [5]	IC50 [5] [µM]	IC90 [5] [µM]
CC1=C(c2nc(-c3cccc(C#N)c3)cs2)C(c2cccc(O)c2)NC(=O)N1C (stereo unspecified)	1.8	> 100	64.2	14.5	59.6	4.4	Dose-dependent effect	55.4	89.2
COc1ncccc1C1NC(=O)NC(C)=C1c1nc(-c2ccc(C#N)cc2)cs1 (stereo unspecified)	26	> 100	> 100	2.6	7.3	39	Dose-dependent effect	3.8	66
CC1=C(c2nc(-c3ccc(F)cc3)cs2)C(c2cccc(O)c2)NC(=O)N1 (stereo unspecified)	16	60	58	8	18	7.3	Dose-dependent effect	3.8	50
CC1=C(c2nc(-c3ccc(C#N)cc3)cs2)C(c2ccc(Oc3ccccc3)cc2)NC(=O)N1 (stereo unspecified)	83	> 10	> 100	0.53	1.8	189	Dose-dependent effect	0.12	0.62
CC1=C(c2nc(-c3ccc(C#N)cc3)cs2)C(c2cccnc2Cl)NC(=O)N1 (stereo unspecified)	46	> 100	> 100	1.5	8.8	67	Dose-dependent effect	2.2	85.5
CC1=C(c2nc(-c3ccc(C#N)cc3)cs2)C(c2ccncc2F)NC(=O)N1 (stereo unspecified)	1.6	> 100						63.4	> 100
COc1cccc(C2NC(=O)NC(C)=C2c2nc(-c3ccc(C#N)cc3)cs2)n1 (stereo unspecified)	63	> 100	> 100	1.6	5.9	63	Dose-dependent effect	1.6	14.4
CC1=C(c2nc(-c3ccc(C#N)cc3)cs2)C(c2cccnc2F)NC(=O)N1 (stereo unspecified)	227	> 100	> 100	0.26	0.83	385	Dose-dependent effect	0.44	2.6
COc1cccc(C2NC(=O)NC(C)=C2c2nc(-c3ccc(C#N)cc3)cs2)c1 (stereo unspecified)	263	> 100	> 100	0.56	1.6	179	Dose-dependent effect	0.38	1.8
CC1=C(c2nc(-c3ccc(Br)cc3)cs2)C(c2cccc(O)c2)NC(=O)N1 (stereo unspecified)	26	60	56	3.6	12	16	Dose-dependent effect	2.3	15
CC1=C(c2nc(-c3ccc(C#N)cc3)cs2)C(c2cc3ccccc3[nH]2)NC(=O)N1 (stereo unspecified)	24	50.5	69.8	3.5	10.8	20	Dose-dependent effect	2.1	10.4
CC1=C(c2nc(-c3ccc(C#N)cc3)cs2)C(c2ccc(Oc3ccccc3)nc2)NC(=O)N1 (stereo unspecified)	156	> 100	67.5	1.2	3.4	56	Dose-dependent effect	0.64	2.8
CC1=C(c2nc(-c3cccc(C#N)c3)cs2)C(c2cccc(O)c2)NC(=O)N1 (stereo unspecified)	6	51.8	74	5	15.1	15	Dose-dependent effect	8.7	38.1
CC1=C(c2nc(-c3ccc(C#N)cc3)cs2)C(c2cccc(O)c2)NC(=O)N1C (stereo unspecified)	42	> 100	> 100	3.2	8.5	31	Dose-dependent effect	2.4	13.8
CC1=C(c2nc(-c3ccc(C)cc3)cs2)C(c2cccc(O)c2)NC(=O)N1 (stereo unspecified)	2	61	65	16	48	4.1	Dose-dependent effect	31	80
CC1=C(c2nc(-c3ccc(C#N)cc3)cs2)C(c2ccnc(Cl)c2)NC(=O)N1 (stereo unspecified)	31	> 100	> 100	4.4	44.5	23	Dose-dependent effect	3.2	> 100
COc1cncc(C2NC(=O)NC(C)=C2c2nc(-c3ccc(C#N)cc3)cs2)c1 (stereo unspecified)	9.6	> 100						10.4	> 100
COc1ccc(C2NC(=O)NC(C)=C2c2nc(-c3ccc(C#N)cc3)cs2)cc1O (stereo unspecified)	263	> 100	> 100	0.15	0.42	667	Dose-dependent effect	0.38	37.8
CC1=C(c2nc(-c3ccc(C#N)cc3)cs2)C(c2ccc(OCc3ccccc3)cc2)NC(=O)N1 (stereo unspecified)	77	> 10	> 100	0.21	0.6	476	Dose-dependent effect	0.13	0.75
CC1=C(c2nc(-c3cccc(O)c3)cs2)C(c2cccc(O)c2)NC(=O)N1 (stereo unspecified)	1.3	89	55	40	85	1.4	Dose-dependent effect	68	98
CC1=C(c2nc(-c3ccc(C(F)(F)F)cc3)cs2)C(c2cccc(O)c2)NC(=O)N1 (stereo unspecified)	7.7	40	57	5.9	18	9.7	Dose-dependent effect	5.2	23
CC1=C(c2nc(-c3ccc(C#N)cc3)cs2)C(c2ccc3ccccc3n2)NC(=O)N1 (stereo unspecified)	67	> 100	> 100	1.3	5.5	77	Dose-dependent effect	1.5	12.7
CC1=C(c2nc(-c3cccc(C#N)c3)cs2)C(c2ccc(O)cc2)NC(=O)N1 (stereo unspecified)	16	69.6	87.5	3.3	10.2	27	Dose-dependent effect	4.4	40.9
CC1=C(c2nc(-c3cccs3)cs2)C(c2cccc(O)c2)NC(=O)N1 (stereo unspecified)	2	> 100						49	> 100
